Several values for one entry are separate records, joined by “and”; a condition that tells them apart may be missing. Equal values may be shown once.
Assays:
[1] = background statement, cited from earlier work
[2] = system: heart transplants from Brown-Norway rats; test: Heart transplant acute rejection: graft survival and inflammation score; assay type: in vivo, Lewis Rats; conditions: for Graft survival / Inflammation score (Mean) (0-3): orotic acid 0 mg/kg/day; for Inflammation score (Mean) (0-3): 0 = no inflammation
Procedure: Treatments included 0, 5, 10 or 15 mg/kg of leflunomide in combination with 0 or 100 mg/kg orotic acid.

[3] = Leflunomide toxicity measured by hematocrit; assay type: in vivo, Lewis rats; conditions: for Hct Week 0 / Hct Week 1 / Hct Week 2 / Hct Week 3 / Hct Week 4: individual rat; for Hct Week 0: baseline hematocrit; for Hct Week 1: week 1 of therapy; for Hct Week 2: week 2 of therapy; for Hct Week 3: week 3 of therapy; for Hct Week 4: week 4 of therapy
Procedure: The experiment of Example 2 was repeated in Lewis rats and the hematocrit measured weekly for four weeks. The rats receiving treatment were divided into five groups wherein each group received 30/mg/kg/day leflunomide, a toxic, high dose. Group I received leflunomide only. Group II received the leflunomide dose plus 36/mg/kg/day of sodium orotate; group III received the leflunomide dose plus 100 mg/kg/day of sodium orotate; group IV received the leflunomide dose plus 88 mg/kg/day of orotic acid; and group V received the leflunomide dose plus 250 mg/kg/day of uridine given IP. A baseline hematocrit was measured, and hematocrits of each rat were measured at weeks 1-4 post commencement of therapy.

## CC(=O)OC[C@H]1O[C@@H](n2ccc(=O)[nH]c2=O)[C@H](OC(C)=O)[C@@H]1OC(C)=O [TAU, 2′, 3′, 5′-tri-O-acetyl uridine]
[1]
  oral bioavailability: orally bioavailable

## O=C(O)c1cc(=O)[nH]c(=O)[nH]1 [orotic acid]
[2]; orotic acid 100 mg/kg with leflunomide 5-15 mg/kg
  Effect of orotic acid on efficacy of leflunomide to reduce the rejection reaction: did not significantly affect the efficacy of leflunomide
[1]; no test described
  bioavailability: approximately 50%

## Cc1oncc1C(=O)Nc1ccc(C(F)(F)F)cc1 [leflunomide, N-(4-trifluoromethylphenyl)-5-methylisoxazol-4-carboxamide]
[2]; leflunomide 5 mg/kg/day
  Graft survival: >30 days
  Inflammation score (Mean) (0-3): 2.0
[2]; leflunomide 10 mg/kg/day
  Graft survival: >30 days
  Inflammation score (Mean) (0-3): 1.7
[2]; leflunomide 15 mg/kg/day
  Graft survival: >30 days
  Inflammation score (Mean) (0-3): 1.5
[2]; leflunomide 5, 10, 15 mg/kg, dose-related
  Intensity of the rejection reaction (inflammation score): reduced the intensity of the rejection reaction
[3]; group mean, week 4
  Hct Week 4, group Mean: Mean: 23.8
[3]; listed as L 30
  Hct Week 0: 53 and 54 and 55 and 52
  Hct Week 1: 53 and 55 and 49 and 50
  Hct Week 2: 44 and 54 and 48 and 46
  Hct Week 3: 41 and 37 (2×) and 33
  Hct Week 4: 30 (2×) and 24 and 22
[3]; listed as L30
  Hct Week 0: 51 and 57
  Hct Week 1: 47 and 52
  Hct Week 2: 39 and 46
  Hct Week 3: 31 and 33
  Hct Week 4: 17 and 20

Source: patent publication US20060024376A1, “Methods and compositions for reducing toxicity associated with leflunomide treatment” (The University of Chicago, priority 2004, published 2006)
